Test results reported in patent US7071206B2, “Agents for treating neurodegenerative disorders” (Medivation, Inc., priority 1995, dated 2006).

Tested on: patients suffering from Alzheimer's disease
Experiment: Clinical trial of dimebon tablets, inventors' scale (E. E. Bukatina et al.; 0 = absence of a symptom, 4 = greatest manifestation)
Assay type: in vivo, human
Conditions: for mean value of delirium manifestations: 10 patients with delirious symptoms prior to treatment; for mean value of depressive manifestations: 12 patients with depressive manifestations
Protocol: The test was carried out under the direct supervision by two of the inventors, namely E. E. Bukatina and V. Grigorieva, in 14 patients who agreed to take part in the tests, 13 of whom lived in a boarding house for senile persons and one patient lived with their family.
Alzheimer's disease was diagnosed on the basis of criteria ICD-10 NINCDS ADRDA.
Dimebon in the form of tablets (comprising 10 mg of dimebon, 30 mg of lactose, 5 mg of magnesium stearate was prescribed for oral administration in a dose of 0.02 g three to times a day. The patients living in the boarding house received dimebon for 58 days. A patient (observation 14) who was under outpatient observation continued taking the agent for a month after the completion of the tests.
Before the treatment with dimebon, and at 4 and 8 weeks after treatment the patients were examined according to Hazegawa's scale and the inventors' scale (“Social and Clinical Psychiatry”, 1992, No.4, pp.29–37) which includes the following indexes: (1) orientation in locality, time, immediate surroundings and one's own personality; (2) orientation in space; (3) memory for the past; (4) memory for the present; (5) “life in the past”; (6) (a) articulation, (b) difficulty in finding words, and distortion of words; (c) naming of objects; (d) following instructions; (7) concentration (of attention); (8) an affective sphere; (a) high spirits, (b) low spirits; (9) delirium; (10) hearing hallucinations; (11) visual hallucinations; (12) senile or senile-like confusion (when motion anxiety is accompanied by the revival of the past experience); (13) irritability; (14) anxiety; (15) asthenia; (16) headaches; (17) dizziness; (18) tearfulness; (19) spontaneous activity; (20) elementary self-service; and (21 control of sphincters.
According to the Hazegawa's scale, the 0 score indicates the poorest result; on the contrary, according to the inventors' scale, the 0 score indicates the absence of a symptom 4 score indicates the greatest manifestation thereof. […] Before the therapy was started, the patients had been independently examined by two doctors who used the inventors' scale. The examination during the treatment was carried out by the doctors using both the scales. The evaluation according to all the inventors' scale points during all the tests and their variations during the treatment with dimebon are given in the Appendix.
According to the inventors' scale, the degree of the disturbance if the cognitive functions was determined by a sum of evaluations according to the first 5 scale points reflecting the condition of memory, orientation and relation with the reality. The disturbance of speech was dealt with separately and was determined by a sum of evaluations according to items 6b-6d.
Both absolute evaluations of the signs under investigation (the evaluation prior to treatment is a mean evaluation of the two examinations) and variations in them were analysed in the course of therapy. In doing so, only those changes that were beyond the range of evaluations obtained in two pre-treatment examinations were taken into consideration.
The test results reflected the condition of the patients at the time of the examination. Any changes in the metal state observed in the interval between the tests and disappearing by the moment of examination according to the scale were described in the section “Clinical Observations”.
The statistical data processing was carried out by means of Student's t-test and Fisher's “Fi” criterion.

[1] = after 4 weeks vs two examinations prior to treatment, + improvement, − deterioration
[2] = after 4 weeks, mean of 14 patients

Structure (SMILES): Cc1ccc2c(c1)c1c(n2CCc2ccc(C)nc2)CCN(C)C1 [No. 10, 2,8-dimethyl-5-[2-(6-methyl-3-pyridyl)ethyl]-2,3,4,5-tetrahydro-1H-pyrido[4,3-b]indole]
- Cognitive functions (first 5 scale points): no variations, % (4 weeks): 81.4%
- Cognitive functions (first 5 scale points): no variations, abs. (4 weeks): 57
- Cognitive functions: X (no variations in the function prior to and during the treatment), % (4 weeks): 7.1%
- Cognitive functions: X (no variations in the function prior to and during the treatment), abs. (4 weeks): 5
- Speech functions (items 6b, c, d): no variations, % (4 weeks): 54.8%
- Speech functions (items 6b, c, d): no variations, abs. (4 weeks): 23
- Speech functions: X (no variations in the function prior to and during the treatment), % (4 weeks): 33.3%
- Speech functions: X (no variations in the function prior to and during the treatment), abs. (4 weeks): 14
- Cognitive functions (first 5 scale points): no variations, % (8 weeks): 53.6%
- Cognitive functions (first 5 scale points): no variations, abs. (8 weeks): 41
- Cognitive functions: X (no variations in the function prior to and during the treatment), % (8 weeks): 7.1%
- Cognitive functions: X (no variations in the function prior to and during the treatment), abs. (8 weeks): 5
- Speech functions (items 6b, c, d): no variations, % (8 weeks): 45.2%
- Speech functions (items 6b, c, d): no variations, abs. (8 weeks): 19
- Speech functions: X (no variations in the function prior to and during the treatment), % (8 weeks): 30.95%
- Speech functions: X (no variations in the function prior to and during the treatment), abs. (8 weeks): 13
- mean value of delirium manifestations (4 weeks): 0.8±0.33
- mean value of delirium manifestations (8 weeks): 0.7±0.27
- mean value of depressive manifestations (after 4 weeks): 0.58±0.18 score
- mean value of depressive manifestations (after 8 weeks): 0.58±0.14 score
- cognitive functions (Hazegawa's scale and inventor's scale), conclusion (14 patients, especially patients with mild dementia): significant improvement in cognitive functions
- mean score of tearfulness (after 4 weeks): 0.2±0.18
- Item 1 (orientation in locality, time, immediate surroundings and one's own personality): change during the course of the therapy [1]: +0.11 +/− 0.07 scores
- Item 2 (orientation in space): change during the course of the therapy [1]: +0.11 +/− 0.07 scores
- Item 3 (memory for the past): change during the course of the therapy [1]: +0.07 +/− 0.07 scores
- Item 4 (memory for the present): change during the course of the therapy [1]: 0 +/− 0 scores
- Item 5 (life in the past): change during the course of the therapy [1]: +0.14 +/− 0.08 scores
- Item 6a (speech): change during the course of the therapy [1]: +0.11 +/− 0.07 scores
- Item 6b (difficulty in finding words, and distortion of words): change during the course of the therapy [1]: 0 +/− 0 scores
- Item 6g (speech): change during the course of the therapy [1]: −0.07 +/− 0.12 scores
- Item 7 (concentration of attention): change during the course of the therapy [1]: 0 +/− 0.5 scores
- Item 8b (low spirits): change during the course of the therapy [1]: +0.41 +/− 0.17 scores
- Item 9 (delirium): change during the course of the therapy [1]: +0.07 +/− 0.09 scores
- Item 13 (irritability): change during the course of the therapy [1]: +0.29 +/− 0.13 scores
- Item 14 (anxiety): change during the course of the therapy [1]: −0.04 +/− 0.13 scores
- Item 15 (asthenia): change during the course of the therapy [1]: −0.11 +/− 0.09 scores
- Item 16 (headaches): change during the course of the therapy [1]: +0.54 +/− 0.21 scores
- Item 17 (dizziness): change during the course of the therapy [1]: −0.14 +/− 0.17 scores
- Item 18 (tearfulness): change during the course of the therapy [1]: −0.14 +/− 0.14 scores
- Item 19 (spontaneous activity): change during the course of the therapy [1]: 0 +/− 0 scores
- Item 20 (elementary self-service): change during the course of the therapy [1]: +0.07 +/− 0.07 scores
- Item 1 (orientation in locality, time, immediate surroundings and one's own personality): mean value [2]: 1.75 +/− 0.23 scores
- Item 2 (orientation in space): mean value [2]: 0.32 +/− 0.15 scores
- Item 3 (memory for the past): mean value [2]: 2.29 +/− 0.21 scores
- Item 4 (memory for the present): mean value [2]: 2.21 +/− 0.22 scores
- Item 5 (life in the past): mean value [2]: 1.75 +/− 0.27 scores
- Item 6a (speech): mean value [2]: 0.71 +/− 0.21 scores
- Item 6b (difficulty in finding words, and distortion of words): mean value [2]: 0.43 +/− 0.17 scores
- Item 6g (speech): mean value [2]: 0.46 +/− 0.16 scores
- Item 7 (concentration of attention): mean value [2]: 1.75 +/− 0.26 scores
- Item 8b (low spirits): mean value [2]: 0.5 +/− 0.16 scores
- Item 9 (delirium): mean value [2]: 0.57 +/− 0.29 scores
- Item 13 (irritability): mean value [2]: 0.21 +/− 0.15 scores
- Item 14 (anxiety): mean value [2]: 0.29 +/− 0.12 scores
- Item 15 (asthenia): mean value [2]: 0.18 +/− 0.1 scores
- Item 16 (headaches): mean value [2]: 0.32 +/− 0.21 scores
- Item 17 (dizziness): mean value [2]: 0.71 +/− 0.27 scores
- Item 18 (tearfulness): mean value [2]: 0.07 +/− 0.07 scores
- Item 19 (spontaneous activity): mean value [2]: 1.29 +/− 0.22 scores
